Literature values in patent EP4174079B1 (UNIWERSYTET JAGIELLONSKI, priority 2021, dated 2023).

Conditions: compared with cisplatin

[Cl][Pt][Cl].c1cn[nH]c1.c1cn[nH]c1 [Cis-PtCl2(pzH)2]
antitumour activity: significantly lower than cisplatin
